Measured values from US8865623B2, “Herbicidally active cyclic diones and derivatives thereof, processes for their preparation, compositions, and method of controlling weeds” (Syngenta Limited, priority 2009, dated 2014).

What was measured:
Type in all cases: in vivo
[1] = tested on: Alopecurus myosuroides (ALOMY); experiment: Pre-emergence herbicidal activity, glasshouse pot test; settings: Alopecurus myosuroides, 312 h, Rate 250 g/ha, evaluated after 13 days, read-out: Pre-emergence activity ALOMY (100=total damage to plant; 0=no damage to plant)
How it was run: (§1)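 Herbicide damage scored 0–100 at 13 d. Pre-emergence: spray 1 d after sowing; post-emergence: spray after 8 d growth. Formulation acetone/water 50:50, 0.5% Tween 20, aqueous spray.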

Avena fatua (AVEFA) [2] = experiment: as above; settings: Avena fatua, 312 h, Rate 250 g/ha, evaluated after 13 days, read-out: Pre-emergence activity AVEFA (100=total damage to plant; 0=no damage to plant)
How it was run: as §1

[3] = tested on: Echinochloa crus-galli (ECHCG); experiment: as above; settings: Echinochloa crus-galli, 312 h, Rate 250 g/ha, evaluated after 13 days, read-out: Pre-emergence activity ECHCG (100=total damage to plant; 0=no damage to plant)
How it was run: as §1

Lolium perenne (LOLPE) [4] = experiment: as above; settings: Lolium perenne, 312 h, Rate 250 g/ha, evaluated after 13 days, read-out: Pre-emergence activity LOLPE (100=total damage to plant; 0=no damage to plant)
How it was run: as §1

[5] = tested on: Alopecurus myosuroides (ALOMY); experiment: Post-emergence herbicidal activity, glasshouse pot test; settings: Alopecurus myosuroides, 312 h, rate 250 g/ha, evaluated after 13 days, read-out: Post-emergence activity ALOMY (100=total damage to plant; 0=no damage to plant)
How it was run: as §1

Avena fatua (AVEFA) [6] = experiment: as above; settings: Avena fatua, 312 h, rate 250 g/ha, evaluated after 13 days, read-out: Post-emergence activity AVEFA (100=total damage to plant; 0=no damage to plant)
How it was run: as §1

[7] = tested on: Echinochloa crus-galli (ECHCG); experiment: as above; settings: Echinochloa crus-galli, 312 h, rate 250 g/ha, evaluated after 13 days, read-out: Post-emergence activity ECHCG (100=total damage to plant; 0=no damage to plant)
How it was run: as §1

Lolium perenne (LOLPE) [8] = experiment: as above; settings: Lolium perenne, 312 h, rate 250 g/ha, evaluated after 13 days, read-out: Post-emergence activity LOLPE (100=total damage to plant; 0=no damage to plant)
How it was run: as §1

| Compound | pest or weed control at 250 g/ha ([1]; pre-emergence spray) [%] | pest or weed control at 250 g/ha (Avena fatua (AVEFA) [2]; pre-emergence spray) [%] | pest or weed control at 250 g/ha ([3]; pre-emergence spray) [%] | pest or weed control at 250 g/ha (Lolium perenne (LOLPE) [4]; pre-emergence spray) [%] | pest or weed control at 250 g/ha ([5]; glasshouse) [%] | pest or weed control at 250 g/ha (Avena fatua (AVEFA) [6]; glasshouse) [%] | pest or weed control at 250 g/ha ([7]; glasshouse) [%] | pest or weed control at 250 g/ha (Lolium perenne (LOLPE) [8]; glasshouse) [%] | pest or weed control at 250 g/ha ([1]; pre-emergence) [%] | pest or weed control at 250 g/ha (Avena fatua (AVEFA) [2]; pre-emergence) [%] | pest or weed control at 250 g/ha ([3]; pre-emergence) [%] | pest or weed control at 250 g/ha (Lolium perenne (LOLPE) [4]; pre-emergence) [%] | pest or weed control at 250 g/ha [5] [%] | pest or weed control at 250 g/ha (Avena fatua (AVEFA) [6]) [%] | pest or weed control at 250 g/ha [7] [%] | pest or weed control at 250 g/ha (Lolium perenne (LOLPE) [8]) [%] |
| --- | --- | --- | --- | --- | --- | --- | --- | --- | --- | --- | --- | --- | --- | --- | --- | --- |
| CCc1ccc(Oc2ccc(F)c(Cl)c2)cc1C1=C(O)CC(C)(C)CC1=O [Example A-257] | 0 | 0 | 40 | 20 | 30 | 0 | 80 | 50 | – | – | – | – | – | – | – | – |
| CC1(C)OC(C)(C)C(O)=C(c2cc(Oc3ccc(Br)cc3Cl)ccc2C2CC2)C1=O [Example A-352] | – | – | – | – | – | – | – | – | 70 | 20 | 100 | 90 | 90 | 70 | 100 | 90 |
| CCc1ccc(Oc2nc3ccc(Cl)cc3s2)cc1C1=C(O)CC2(CCOCC2)CC1=O [Example A-304] | 80 | 80 | 100 | 70 | 100 | 100 | 100 | 100 | – | – | – | – | – | – | – | – |
| CCc1ccc(Oc2ccc(C(F)(F)F)cc2C#N)cc1C1=C(O)C(C)(C)OC(C)(C)C1=O [Example A-100] | 40 | 40 | 100 | 80 | 80 | 80 | 90 | 40 | – | – | – | – | – | – | – | – |
| CCc1ccc(Oc2nc(F)c(F)c(C)c2F)cc1C1=C(O)C(C)(C)OC(C)(C)C1=O [Example A-59] | 80 | 70 | 100 | 100 | 80 | 70 | 100 | 70 | – | – | – | – | – | – | – | – |
| CC1(C)OC(C)(C)C(O)=C(c2cc(Oc3ccc(Br)cc3)ccc2C2CC2)C1=O [Example A-351] | – | – | – | – | – | – | – | – | 60 | 10 | 100 | 90 | 90 | 10 | 100 | 100 |
| CCc1ccc(Oc2ccc(Cl)c(F)c2)cc1C1=C(O)[C@@H]2CC[C@](C)(C1=O)C2(C)C (single isomer, unassigned) [Example A-93] | 60 | 60 | 100 | 90 | 60 | 20 | 50 | 20 | – | – | – | – | – | – | – | – |
| CCc1ccc(Oc2cnc3ccccc3n2)cc1C1=C(O)C(C)(C)OC(C)(C)C1=O [Example A-161] | 70 | 50 | 100 | 90 | 100 | 70 | 100 | 90 | – | – | – | – | – | – | – | – |
| CCc1ccc(Oc2ccc(C(F)(F)F)cc2Br)cc1C1=C(O)CC(C)(C)CC1=O [Example A-282] | 10 | 10 | 100 | 60 | 70 | 60 | 100 | 40 | – | – | – | – | – | – | – | – |
| CCc1ccc(Oc2ccc(C(F)(F)F)c(C#N)c2)cc1C1=C(O)CC(C)(C)CC1=O [Example A-295] | 50 | 20 | 70 | 50 | 80 | 60 | 100 | 40 | – | – | – | – | – | – | – | – |
